Several values for one entry are separate records, joined by “and”; a condition that tells them apart may be missing. Equal values may be shown once. Read-outs that look alike come from different tables or passages of the source. Marks after values point to notes of the source that are not given here.
What was measured:
ADR mouse = assay: Anti-myotonic effects in the ADR mouse (righting response); type: in vivo
Procedure: The effects of oral administration of either mexiletine glutamic acid amide at 5, 10 or 20 mg/kg or mexiletine 5 mg/kg on the righting response of a group of three adr/adr mice were examined on three separate days. Each assessment involved placing the individual mice on their back no fewer than seven successive occasions in rapid succession and determining the time to successful righting at various time pre and post dosing (−10, +15, +30, +60, +120 & +180 mins).

[1] = Systemic availability of mexiletine in the cynomolgus monkey from mexiletine prodrugs (oral gavage); type: in vivo; conditions: 1 mg/kg mexiletine free base
Procedure: Test substances (i.e., mexiletine, and various mexiletine amino acid prodrugs) were administered by oral gavage to groups of two and, in one case, five male cynomolgus monkeys. Blood samples were taken at various times after administration and submitted to analysis for the parent drug using a validated LC-MS-MS assay. Pharmacokinetic parameters derived from the plasma bioanalytical data were determined using Win Nonlin.

[2] = In vitro stability of mexiletine prodrugs under conditions prevailing in the gut; type: physicochemical; conditions: HPLC
Procedure: To investigate if the prodrugs of the present invention are stable in conditions mimicking the gut, various mexiletine amino acid prodrugs were incubated at 37° C. in simulated gastric and simulated intestinal juice (USP defined composition) for 2 hours. The remaining concentrations of the prodrug were then assayed by HPLC.

[3] = rat
Procedure: Test substances (i.e., mexiletine & mexiletine glutamic acid amide) were administered by oral gavage to groups of five male Sprague Dawley rats.
Blood samples were taken at various times after administration and submitted to analysis for the prodrug and parent drug using a validated LC-MS-MS assay. Pharmacokinetic parameters derived from the plasma analytical were determined using Win Nonlin.

[4] = In vitro stability of mexiletine prodrugs under conditions prevailing in the gut; type: physicochemical; conditions: 0.1M phosphate buffer pH 7.4, 2 h
[5] = system: 9-AC induced myotonia in the rat; assay: Anti-myotonic effects in 9-anthracene carboxylic acid (9-AC) treated rats (righting time); type: in vivo; conditions: for Mean ± SEM righting response time: 9-AC 30 mg/kg ip
Procedure: The use of ip injection of 9-anthracene carboxylic acid is known to induce a myotonic state in rats which can then be used to assess the activity of potential anti-myotonic compounds (Villegas-NavarroA et al (1992) Exp. Toxicol. Pathol. 44 34-39).
Groups of four rats were predosed with 30 mg/kg 9-AC (time 0) and ten minutes later their righting time was assessed repeatedly seven times in rapid succession. They were then dosed po with mexiletine or mexiletine glutamic acid amide at 1, 5, 10, 20 or 40 mg/kg and the righting time reassessed at ˜30, 60, 120 and 180 minutes after 9-AC injection. At each dose level, a group of four control animals, given vehicle alone, was used

[6] = Systemic availability of mexiletine in the dog from mexiletine prodrugs (oral gavage); type: in vivo
Procedure: Test substances (i.e., mexiletine, and various mexiletine amino acid prodrugs) were administered by oral gavage to groups of two or some cases five dogs. The characteristics of the test animals are set out in Table 6.
Blood samples were taken at various times after administration and submitted to analysis for parent drug using a validated LC-MS-MS assay. Pharmacokinetic parameters derived from the plasma bioanalytical data were determined using Win Nonlin.

[7] = oral 5 mg mexiletine free base equivalents/kg, individual animals, Hydrochloride
[8] = oral 5 mg mexiletine free base equivalents/kg, plasma prodrug, individual animals, Hydrochloride
[9] = oral 5 mg mexiletine free base equivalents/kg, plasma prodrug, mean
[10] = 1 mg/kg mexiletine free base, plasma mexiletine

Cc1cccc(C)c1OCC(C)NC(=O)C(N)CCC(=O)O.Cl (mixture of isomers) [Mexiletine glutamic acid amide, Mexiletine-(S)-Glutamic Acid Amide Hydrochloride]
Effects on righting time (ADR mouse; oral 5 mg/kg): marginal | Mean ± SEM righting response time (ADR mouse; oral 5 mg/kg, +15 mins): 5.70 ± 0.864 s | Mean ± SEM righting response time (ADR mouse; oral 5 mg/kg, +30 mins): 6.53 ± 0.928 s | Mean ± SEM righting response time (ADR mouse; oral 5 mg/kg, +60 mins): 7.13 ± 1.46 s | Mean ± SEM righting response time (ADR mouse; oral 5 mg/kg, +120 mins): 9.22 ± 1.44 s | Mean ± SEM righting response time (ADR mouse; oral 5 mg/kg, +180 mins): 8.38 ± 0.601 s | Mean ± SEM righting response time (ADR mouse; oral 5 mg/kg, −10 mins (pre dosing)): 5.10 ± 0.580 s | Mean ± SEM righting response time (ADR mouse; oral 10 mg/kg, +15 mins): 3.14 ± 0.278 s | Mean ± SEM righting response time (ADR mouse; oral 10 mg/kg, +30 mins, listed as MGAA, Hydrochloride, 10 mg/kg): 2.74+0.37 secs and 2.74 ± 0.373 secs | Mean ± SEM righting response time (ADR mouse; oral 10 mg/kg, +60 mins): 4.41 ± 1.02 s | Mean ± SEM righting response time (ADR mouse; oral 10 mg/kg, +120 mins): 5.45 ± 0.529 s | Mean ± SEM righting response time (ADR mouse; oral 10 mg/kg, +180 mins): 6.92 ± 1.05 s | Mean ± SEM righting response time (ADR mouse; oral 10 mg/kg, −10 mins (pre dosing), listed as MGAA, Hydrochloride, 10 mg/kg): 5.18 ± 0.43 s and 5.18 ± 0.427 s | Mean ± SEM righting response time (ADR mouse; oral 20 mg/kg, +15 mins): 4.23 ± 1.09 s | Mean ± SEM righting response time (ADR mouse; oral 20 mg/kg, +30 mins): 3.06 ± 0.884 s | Mean ± SEM righting response time (ADR mouse; oral 20 mg/kg, +60 mins): 4.05 ± 0.286 s | Mean ± SEM righting response time (ADR mouse; oral 20 mg/kg, +120 mins): 5.90 ± 0.568 s | Mean ± SEM righting response time (ADR mouse; oral 20 mg/kg, +180 mins): 7.90 ± 1.34 s | Mean maximum reduction in righting time (ADR mouse; oral 20 mg/kg, extended over 3 hours): ~60% | Mean ± SEM righting response time (ADR mouse; oral 20 mg/kg, −10 mins (pre dosing)): 7.13 ± 1.84 s | AUC of mexiletine ([1]; plasma mexiletine): 604 ng·h/mL | Cmax of mexiletine ([1]; plasma mexiletine): 90.6 ng/mL | T50% Cmax ([1]; plasma mexiletine): 4.76 h | F(rel) ([1]; relative to mexiletine, Hydrochloride, 1 mg/kg): 87.6% | Simulated gastric fluid (pH 1.1): % remaining after 2 h/37° C. ([2]; simulated gastric fluid pH 1.1, 2 h): 100% | Simulated intestinal fluid (pH 6.8): % remaining after 2 h/37° C. ([2]; simulated intestinal fluid pH 6.8, 2 h): 98.3% | Overall bioavailability of mexiletine from the prodrug vs mexiletine ([3]; oral): ~2.75 fold | Frel ([3]; oral 5 mg mexiletine free base equivalents/kg, individual animals, vs mexiletine, Hydrochloride): 163^c % and 152^c % and 232% and 303% and 283% | AUC of mexiletine [3, 7]: 29.2* ng · h/mL and 33.3 ng · h/mL and 43.4 ng · h/mL and 40.6 ng · h/mL | Cmax of mexiletine [3, 7]: 8.21 ng/mL and 8.99 ng/mL and 7.97 ng/mL and 10.4 ng/mL and 8.84 ng/mL | T>50% Cmax of mexiletine [3, 7]: 4.1 h (2×) and 2.5 h and 2.4 h and 3.9 h | Tmax of mexiletine [3, 7]: 1 h (3×) and 2 h (2×) | t 1/2 of mexiletine [3, 7]: 1.8* h and 2.6 h and 1.2 h and 2.5 h | t 1/2 of mexiletine, mean ([3]; oral 5 mg mexiletine free base equivalents/kg, ln2/mean k): 1.9^b h | Cmax of mexiletine, mean ([3]; oral 5 mg mexiletine free base equivalents/kg, mean): 8.88 ng/mL | AUC of mexiletine, mean ([3]; oral 5 mg mexiletine free base equivalents/kg, mean (values with extrapolated AUC > 25% omitted)): 39.1 ng·h/mL | Frel, mean ([3]; oral 5 mg mexiletine free base equivalents/kg, mean, vs mexiletine): 273% | Tmax of mexiletine, median ([3]; oral 5 mg mexiletine free base equivalents/kg, median value): 1^a h | T>50% Cmax of mexiletine, median ([3]; oral 5 mg mexiletine free base equivalents/kg, median value, Hydrochloride): 3.9^a h | T>50% Cmax of mexiletine, median ([3]; oral 5 mg mexiletine free base equivalents/kg, median value, listed as MGAA, Hydrochloride): ~4.0 h | AUC of mexiletine glutamic acid amide (prodrug) [3, 8]: 269 ng·h/mL and 266 ng·h/mL and 223 ng·h/mL and 320 ng·h/mL and 413 ng·h/mL | Cmax of mexiletine glutamic acid amide (prodrug) [3, 8]: 127 ng/mL and 186 ng/mL and 101 ng/mL and 180 ng/mL and 138 ng/mL | Tmax of mexiletine glutamic acid amide (prodrug) [3, 8]: 0.25 h and 0.5 h (2×) and 1.0 h (2×) | t 1/2 of mexiletine glutamic acid amide (prodrug) [3, 8]: 1.0 h and 0.9 h (2×) and 1.9 h and 1.3 h | t 1/2 of mexiletine glutamic acid amide (prodrug), mean ([3]; oral 5 mg mexiletine free base equivalents/kg, plasma prodrug, ln2/mean k): 1.0^b h | AUC of mexiletine glutamic acid amide (prodrug), mean [3, 9]: 298 ng·h/mL | Cmax of mexiletine glutamic acid amide (prodrug), mean [3, 9]: 146 ng/mL | Tmax of mexiletine glutamic acid amide (prodrug), median ([3]; oral 5 mg mexiletine free base equivalents/kg, plasma prodrug, median value): 0.5^a h | pH 7.4, 37° C. 0.1M phosphate buffer: % remaining after 2 h/37° C. [4]: 100% | Coefficient of variation of the response ([5]; 10 mg/kg (same molar dose level), time of maximal effect of 9-AC (+30 mins)): 43.3% | Mean ± SEM righting response time ([5]; drug 1 mg/kg po, 9-AC +10 mins (predrug)): 1.98 ± 0.115 s | Mean ± SEM righting response time ([5]; drug 1 mg/kg po, 9-AC +30 mins): 3.52 ± 0.398 s | Mean ± SEM righting response time ([5]; drug 1 mg/kg po, 9-AC +60 mins): 1.86 ± 0.195 s | Mean ± SEM righting response time ([5]; drug 1 mg/kg po, 9-AC +120 mins): 1.07 ± 0.0369 s | Mean ± SEM righting response time ([5]; drug 1 mg/kg po, 9-AC +180 mins): 0.714 ± 0.0427 s | Mean ± SEM righting response time ([5]; drug 5 mg/kg po, 9-AC +10 mins (predrug)): 2.24 ± 0.208 s | Mean ± SEM righting response time ([5]; drug 5 mg/kg po, 9-AC +60 mins): 2.22 ± 0.0828 s | Mean ± SEM righting response time ([5]; drug 5 mg/kg po, 9-AC +120 mins): 1.32 ± 0.194 s | Mean ± SEM righting response time ([5]; drug 5 mg/kg po, 9-AC +180 mins): 1.11 ± 0.220 s | Mean ± SEM righting response time ([5]; drug 10 mg/kg po, 9-AC +10 mins (predrug)): 3.07 ± 0.754 s | Mean ± SEM righting response time ([5]; drug 10 mg/kg po, 9-AC +60 mins): 2.33 ± 0.472 s | Mean ± SEM righting response time ([5]; drug 10 mg/kg po, 9-AC +120 mins): 1.26 ± 0.105 s | Mean ± SEM righting response time ([5]; drug 10 mg/kg po, 9-AC +180 mins): 1.18 ± 0.156 s | Mean ± SEM righting response time ([5]; drug 20 mg/kg po, 9-AC +10 mins (predrug)): 1.90 ± 0.274 s | Mean ± SEM righting response time ([5]; drug 20 mg/kg po, 9-AC +60 mins): 1.51 ± 0.153 s | Mean ± SEM righting response time ([5]; drug 20 mg/kg po, 9-AC +120 mins): 1.18 ± 0.0973 s | Mean ± SEM righting response time ([5]; drug 20 mg/kg po, 9-AC +180 mins): 1.03 ± 0.0709 s | Mean ± SEM righting response time ([5]; drug 40 mg/kg po, 9-AC +10 mins (predrug)): 2.10 ± 0.077 s | Mean ± SEM righting response time ([5]; drug 40 mg/kg po, 9-AC +60 mins): 0.95 ± 0.166 s | Mean ± SEM righting response time ([5]; drug 40 mg/kg po, 9-AC +120 mins): 0.669 ± 0.0558 s | Mean ± SEM righting response time ([5]; drug 40 mg/kg po, 9-AC +180 mins): 0.570 ± 0.0576 s | Bioavailability with respect to mexiletine [6]: near complete | AUC of mexiletine [6, 10]: 1020 ng·h/mL | Cmax of mexiletine [6, 10]: 104 ng/mL | T50% Cmax [6, 10]: 7.64 h | F(rel) ([6]; 1 mg/kg mexiletine free base, relative to mexiletine, Hydrochloride, 1 mg/kg): 94.9%

From patent publication US20120196933A1, “MEXILETINE PRODRUGS” (priority 2010, published 2012)
